Data from patent US20260021078A1, “COMPOSITIONS AND METHODS FOR THE TREATMENT OR PREVENTION OF PULMONARY HYPERTENSION” (VIVUS LLC, priority 2015, published 2026).
Like-named read-outs stand apart in the source and are kept apart here.

Legend:
[1] = test system: SuHx rat model of pulmonary arterial hypertension; assay: SuHx rat model of PAH with 3 weeks normoxia before treatment, Example 2; type: in vivo
Description: A second study was conducted as described in Example 1, except the rats injected with Sugen 5416 and placed in hypoxia for 3 weeks were returned to normoxia for three weeks, and then treated for three weeks. The rats were then implanted with s.c. osmotic pumps delivering vehicle (negative control), 0.05 mg/kg/day tacrolimus (FK506), or 0.15 mg/kg/day, 1.0 mg/kg/day, 3.0 mg/kg/day ascomycin (FK520). Rats that were not treated with Sugen 5416 and remained under normoxia served as control. There were 5 rats in the control group, and 10 rats in each treated group. At the end of the study, the rats were anaesthetized and hemodynamic data was obtained. […] The left lobes of the lungs were harvested from every rat, fixed with 10% formalin, sliced at 5 μm thickness, mounted and stained with Movat staining. […] Of particular significance in SuHx model is the rare plexiform lesions (label 4 in FIG. 3A) that are neointimal hyperplasia blocking the small vessels resulting in increased pressure. With plexiform lesions and endothelial cells overgrowth, obliteration is formed.

[2] = test system: patients with pulmonary hypertension (WHO Group I PAH); assay: Clinical study in patients with pulmonary arterial hypertension, Example 3; type: in vivo, human
Source text: Patients are invited to participate in this study because they have pulmonary hypertension (PH) and are currently treated with one or multiple drugs for PH such as PDE-5 inhibitors (sildenafil, tadalafil), prostacyclins (Flolan, Remodulin, Iloprost) and/or the endothelin antagonist Ambrisentan. This study is open to male or female subjects, 18-70 years of age, with pulmonary hypertension. The Inclusion and Exclusion criteria used are below:
• 1. Age ≥18 and <70 years • 2. Diagnosis of WHO Group I Pulmonary Arterial Hypertension (PAH) (Idiopathic (I)PAH, Heritable PAH (including Hereditary Hemorrhagic Telangiectasia), Associated (A)PAH (including collagen vascular disorders, drugs+toxins exposure, congenital heart disease, and portopulmonary disease). • 3. Previous Right Heart Catheterization (RHC) that documented: • a. Mean PAP≥25 mmHg. • b. Pulmonary capillary wedge pressure<15 mmHg. • c. Pulmonary Vascular Resistance≥3.0 Wood units or 240 dynes/sec/cm5 • 5. All NYHA/WHO functional classes. • 6. Willingness of female subjects to use birth control, or be post-menopausal, or status post hysterectomy.
• 1. WHO Group II-V Pulmonary Hypertension. • 2. Current or prior experimental PAH treatments within the last 6 months (including but not limited to tyrosine kinase inhibitors, rho-kinase inhibitors, or cGMP modulators). • 3. […]

[3] = test system: SuHx rat model of pulmonary arterial hypertension; assay: Sugen 5416 plus chronic hypoxia (SuHx) rat model of PAH, Example 1; type: in vivo
Source text: The purpose of this study was to establish pulmonary arterial hypertension (PAH) in rats by induction with Sugen 5416, a vascular endothelial growth factor (VEGF) inhibitor, plus chronic hypoxia (SuHx) in order to evaluate and compare the efficacy of tacrolimus and ascomycin for the treatment of PAH in the SuHx rat model. The assay is designed to measure the pulmonary and systemic arterial blood pressures related to PAH in the anaesthetized SuHx rat induced with a single subcutaneous dose of Sugen 5416, combined with an induction period of chronic hypoxia.
Male Sprague Dawley rats (Charles River Laboratories) weighing between 200 and 250 g at the time of their enrollment in the study were the test subjects for this study. The animals were assigned to groups by the Study Director in order to evenly distribute the ranges of body weights throughout all treatment groups. Animals in the test groups (n=10 in each group) received one subcutaneous injection of 20 mg/kg of SU5416 on Day 0 and were returned to their respective cages. These rats were placed in cages in which the controlled airflow (ventilated cage system) was adjusted to deliver a FiO2 equivalent to 0.10 (10%) using a mixture of nitrogen and ambient air, for a period of 3 weeks. Animals in the control group (n=5) remained in cages exposed to ambient oxygen levels.
On day 21, animals in the test groups were implanted with osmotic pumps filled with the vehicle alone (negative control), or with the appropriate concentration of tacrolimus (FK506) or ascomycin (FK520) to deliver 0.05 mg/kg/day of tacrolimus, 0.05 mg/kg/day of ascomycin, or 0.15 mg/kg/day of ascomycin for a period of three weeks. At the end of the study, the rats were anaesthetized and hemodynamic data was obtained. […] Cardiac output was lower after administration of Sugen5416 and hyposia, and increased with ascomycin treatment.

[4] = assay/target not stated; cited from earlier work
[5] = test system: BMP response element (BRE) from the Id1 promoter fused to luciferase (BRE-luc) in C2C12 mouse myoblastoma reporter cell line; assay: BRE-luc BMP signaling reporter assay in C2C12 cells; type: cell-based
Description: The activation of the BMP pathway was measured by luminescence. […] Thus, ascomycin activates BMPR2 signaling, and can be used for the prevention or treatment of diseases associated with decreased BMPR2 signaling, such as pulmonary arterial hypertension (PAH).

[6] = test system: popliteal lymph node hyperplasia; details: popliteal lymph node hyperplasia assay; lower potency than tacrolimus; cited from earlier work
[7] = test system: rats; details: 14-day, cited from earlier work
[8] = 0.05 mg/kg/day s.c. osmotic pump, three weeks
[9] = all three doses (0.15 [0.3 in b20], 1.0, 3.0 mg/kg/day) s.c. osmotic pump, three weeks
[10] = 0.15 mg/kg/day by osmotic pump for three weeks, vs vehicle-treated SuHx rats

| SMILES | right ventricular hypertrophy [1, 8] | right ventricular systolic pressure [1, 8] | incidences of hypertension or cardiovascular events [2] | tolerability ([2]; all tested doses) | lung histopathology (Movat staining micrographs, FIG. 3B) ([1]; 1 mg/kg/day, left lung lobes, negative control showed all four grades of disease progression) | right ventricular systolic pressure [1, 9] | systolic pulmonary arterial pressure [1, 9] | RVSP (FIG. 1B) [3, 10] | pulmonary arterial pressure (FIG. 1A) [3, 10] | Cardiac output ([3]; ascomycin treatment after Sugen5416 and hypoxia, dose not specified) | IC50 [4] [nM] | IDI activation (luminescence relative to the EC-20 dose of BMP4) ([5]; with exogenous BMP4) [%] | IDI activation (luminescence relative to the EC-20 dose of BMP4) ([5]; without exogenous BMP4) [%] | immunosuppressive potency compared with tacrolimus (fold lower) [6] [fold] | nephrotoxicity ([7]; continuous i.p. infusion at 10 mg/kg/day, rats on a normal diet) | nephrotoxicity ([7]; continuous i.v. infusion up to 6 mg/kg/day, rats on a low salt diet) | nephrotoxicity ([7]; daily oral administration up to 50 mg/kg/day, rats on a normal diet) |
| --- | --- | --- | --- | --- | --- | --- | --- | --- | --- | --- | --- | --- | --- | --- | --- | --- | --- |
| C=CC[C@@H]1/C=C(\C)C[C@H](C)C[C@H](OC)[C@H]2O[C@@](O)(C(=O)C(=O)N3CCCC[C@H]3C(=O)O[C@H](/C(C)=C/[C@@H]3CC[C@@H](O)[C@H](OC)C3)[C@H](C)[C@@H](O)CC1=O)[C@H](C)C[C@@H]2OC [tacrolimus, reference compound] | reduces the elevation | reduces the elevation | – | – | – | – | – | – | – | – | – | – | – | – | – | – | – |
| CC[C@@H]1/C=C(\C)C[C@H](C)C[C@H](OC)[C@H]2O[C@@](O)(C(=O)C(=O)N3CCCC[C@H]3C(=O)O[C@H](/C(C)=C/[C@@H]3CC[C@@H](O)[C@H](OC)C3)[C@H](C)[C@@H](O)CC1=O)[C@H](C)C[C@@H]2OC [ascomycin, (3S,4R,5S,8R,9E,12S,14S,15R,16S,18R, 19R,26aS)-8-ethyl-5,19-dihydroxy-3-{(1E)-1-[(1R,3R,4R)-4-hydroxy-3-methoxycyclohexyl]prop-1-en-2-yl}-14,16-dimethoxy-4,10,12,18-tetramethyl-5.6,8,11,12,13,14,15,16,17,18,19,24,25,26,26a-hexadecahydro-3H-15.19-epoxypyrido[2,1-c][1,4]oxazacyclotricosine-1,7,20,21(4H,23H)-tetrone] | – | – | no incidences | well tolerated | mostly medial hypertrophy (label 1) and non-muscular vessels | decreases | decreases | reversed the elevation | reversed the elevation | increased | 0.55 | 238 | 104 | 3 | not induced | not induced | not induced |
